Measured values as given in paper PMC8004929, “Whole-Body Pharmacokinetics and Physiologically Based Pharmacokinetic Model for Monomethyl Auristatin E (MMAE)” (Journal of Clinical Medicine, 2021).
Read-outs that look alike come from different tables or passages of the source. Square brackets hold non-standard residues; d marks the D form. Peptide text beside a SMILES is read from it. * marks the point of attachment. Dolaproine = CO[C@@H]([C@@H]1CCCN1)[C@@H](C)C(=O)O; Dil = CC[C@H](C)[C@H](NC)[C@@H](CC(=O)O)OC; X1 = C[C@@H](N*)[C@@H](O)c1ccccc1; NMeV = CN[C@H](C(=O)O)C(C)C

Key:
[1] = cited from earlier work
Method: The PBPK model well captured the PK in plasma, tissues, and tumor simultaneously. CLint was estimated with good precision (%CV = 8.92), and the optimized value was 137 mL/h. […] About 80% of MMAE excretes via feces, and only 6% excretes via urine. Therefore, we assumed that MMAE was eliminated only via metabolism and biliary/fecal excretion from the liver. […] For the derivation of CLint based on in vitro data, the CLint, vitro were estimated using human hepatocyte (3 µL/min/10^6 cells) and human ...

[2] = Whole-body biodistribution / PK study of MMAE in tumor-bearing mice (LC-MS/MS, NCA); assay type: in vivo; details: 0.1 mg/kg i.v.; for AUC0−t: observed conc. by LC-MS/MS, 3 mice per time point; for KPadj: KP adjusted for percentage of cellular volume in total tissue volume
From the text: Male athymic nude mice were purchased at the age of 6 weeks from Charles River (Wilmington, NC, USA). After acclimation to the new conditions for two weeks, mice were subcutaneously injected with MDA-MB-468 (about 10 million tumor cells) into the right dorsal flank. The in vivo study adhered to the Principles of Laboratory Animal Care (National Institutes of Health publication 85–23, revised 1985) and were approved by the University at Buffalo Institutional Animal Care and Use Committee (IACUC# PHC29035Y).
A total of 18 mice (6 weeks old, 26–35 g) bearing MDA-MB-468 xenografts were used for the biodistribution studies. Then, 0.1 mg/kg MMAE was injected into the mice via the penile vein, and terminal samples were collected at 5 min and 1, 6, 12, 24, and 168 h. Three mice were sacrificed at each time point. Whole blood, tissue, and tumor were harvested. The collected tissues included the heart, liver, lung, spleen, pancreas, kidney, skin, bone, muscle, fat, and brain. Whole blood samples in ethylenediaminetetraacetic acid (EDTA) pre-coated tubes were centrifuged at 2000× g for 20 min at 4 °C, and plasma was collected and stored at −20 °C for further analysis. Harvested tissue samples were blotted dry and immediately frozen in liquid nitrogen and stored at −80 °C until homogenization.
A detailed tissue homogenization procedure has been reported previously. Briefly, different volumes of RIPA buffer containing protease inhibitor were added into the weighted tissue samples to obtain different dilution factors in each tissue. The dilution factor was 5 for heart, liver, lung, spleen, pancreas, kidney, skin, and fat, 8 for bone and muscle, and 4 for brain samples. Tissue samples were homogenized using a BeadBug™ microtube homogenizer (Benchmark, USA) at the maximum speed for 15 s followed by a 30-s ice cool down, and repeated three times. Blood samples without dilution were directly homogenized for 30 s at maximum speed and were treated the same way as tissue samples.
Then, 500 µL acetonitrile containing 0.1% formic acid was added into 100 µL of plasma, tissue, or tumor homogenate samples and then spiked with 20 µL of IS solution (D8-MMAE 150 ng/mL). After vortexing and centrifugation at 15,000× g for 15 min at 4 °C, the supernatants were transferred to glass tubes and dried under nitrogen flow at 32 °C. The dried residuals were reconstituted with 60 µL of acetonitrile/water (95:5 v/v) containing 0.1% formic acid, gently vortexed, and immediately transferred into HPLC vials.
Standards and quality control samples (QCs) were prepared for plasma and each tissue matrix. Then, 250 µL of the control plasma or matrices were spiked with 20 µL of IS solution (D8-MMAE 150 ng/mL) and 10 µL of MMAE stock solution diluted with acetonitrile, and then, 500 µL of acetonitrile containing 0.1% formic acid was added. The final concentrations of standard were 0.5, 1, 10, 100, 200, and 500 ng/mL. QCs were prepared similarly for the final concentrations of […].
A Waters Acquity LC-MS/MS system was used with electrospray interphase and triple quadrupole mass spectrometer. An ACQUITY UPLC BEH Amide column (Waters, Milford, MA, USA) was used with 5 mM ammonium formate and 0.1% formic acid as the aqueous phase, and 0.1% formic acid and 1 mM ammonium formate were used as the organic phase. The gradient flow rate was 0.25 mL/min. The lower limit of quantification of MMAE was […] (or ng/g) for plasma, blood, tissues, and tumor.
Noncompartmental analysis (NCA) was conducted for plasma PK data. AUC computed from time 0 to the last observed concentration time (AUC0−t) was calculated using the linear/log trapezoidal method in WinNonlin (version 8.1, Pharsight, St. Louis, MO, USA). Blood to plasma ratios ( KP,BC ) and tissue partition coefficients ( KP,i ) were calculated using Equation (1), using AUC0−t values derived from the observed data. (1) KP,BC or KP,i=AUCi,0−t/AUCp,0−t, […]

CYP3A = details: in vivo and in vitro studies; cited from earlier work
From the text: The PBPK model of MMAE presented here can further be used to assess drug–drug interactions of MMAE containing ADCs. In vivo and in vitro studies indicate that MMAE is a substrate of CYP3A and P-glycoprotein [34]. As such, the polymorphism of CYP3A and P-glycoprotein may affect the PK of MMAE, and consequently the efficacy and toxicity of MMAE-conjugated ADCs. As such, the MMAE PBPK model can serve as a tool to explore drug interactions of ADCs.

[3] = NCA of plasma, tumor-bearing mice

## CC[C@H](C)[C@@H]([C@@H](CC(=O)N1CCC[C@H]1[C@H](OC)[C@@H](C)C(=O)N[C@H](C)[C@@H](O)c1ccccc1)OC)N(C)C(=O)[C@@H](NC(=O)[C@@H](NC)C(C)C)C(C)C [MMAE, Monomethyl auristatin E] (H-[NMeV]V[Dil][Dolaproine]-X1)
[1]; human liver hepatocyte
  in vitro CLint (CLint, vitro): 3 µL/min/10^6 cells
[1]; human liver microsome
  in vitro CLint (CLint, vitro): 24 µL/min/mg
[2]; MDA-MB-468 tumor AUC0−t / plasma AUC0−t, tumor-bearing mice
  KP (tissue-to-plasma partition coefficient): 8.21
[2]; MDA-MB-468 tumor, tumor-bearing mice
  AUC0−t: 0.619 µM·h
[2]; [3]
  half-life: 2.5 h
  systemic CL: 60 mL/h
  volume of distribution (Vss): 42 mL
[2]; NCA, tumor-bearing mice
  plasma AUC from 0 to 12 h: 54.3 ng·h/mL
  plasma AUC from 0 to infinite: 54.5 ng·h/mL
[2]; after 5 min, tumor-bearing mice
  injected dose remaining in plasma: 0.3%
[2]; at 6 h, tumor-bearing mice
  blood-to plasma ratio: ≈ 20
[2]; blood (blood cell) AUC0−t / plasma AUC0−t, tumor-bearing mice
  KP (partition coefficient): 5.46
[2]; blood, tumor-bearing mice
  KPadj: 5.46
[2]; blood, MDA-MB-468 tumor-bearing mice
  AUC0−t: 0.414 µM·h
[2]; bone, tumor-bearing mice
  KPadj: 1.89
[2]; bone, MDA-MB-468 tumor-bearing mice
  AUC0−t: 0.11 µM·h
[2]; brain AUC0−t / plasma AUC0−t, tumor-bearing mice
  KP (tissue-to-plasma partition coefficient): 0.411
[2]; brain, tumor-bearing mice
  KPadj: 0.530
[2]; brain, MDA-MB-468 tumor-bearing mice
  AUC0−t: 0.0312 µM·h
[2]; early time-points (<30 min), tumor-bearing mice
  blood-to plasma ratio: about 6
[2]; fat AUC0−t / plasma AUC0−t, tumor-bearing mice
  KP (tissue-to-plasma partition coefficient): 2.43
[2]; fat, tumor-bearing mice
  KPadj: 3.01
[2]; fat, MDA-MB-468 tumor-bearing mice
  AUC0−t: 0.184 µM·h
[2]; from 1 to 168 h, MDA-MB-468 tumor, mice
  decrease of MMAE concentration in the tumor: 50%
[2]; heart AUC0−t / plasma AUC0−t, tumor-bearing mice
  KP (tissue-to-plasma partition coefficient): 17.9
[2]; heart, tumor-bearing mice
  KPadj: 22.8
[2]; heart, MDA-MB-468 tumor-bearing mice
  AUC0−t: 1.356 µM·h
[2]; kidney AUC0−t / plasma AUC0−t, tumor-bearing mice
  KP (tissue-to-plasma partition coefficient): 31.6
[2]; kidney, tumor-bearing mice
  KPadj: 42.4
[2]; kidney, MDA-MB-468 tumor-bearing mice
  AUC0−t: 2.396 µM·h
[2]; liver AUC0−t / plasma AUC0−t (apparent, not adjusted for CLint), tumor-bearing mice
  KP (tissue-to-plasma partition coefficient): 2.42
[2]; liver, tumor-bearing mice
  KPadj: 3.80
[2]; liver, MDA-MB-468 tumor-bearing mice
  AUC0−t: 0.176 µM·h
[2]; lung > spleen > liver > heart, tumor-bearing mice
  exposure relative to plasma exposure, highly perfused tissues: > 15 fold
[2]; lung AUC0−t / plasma AUC0−t, tumor-bearing mice
  KP (tissue-to-plasma partition coefficient): 35.3
[2]; lung, tumor-bearing mice
  KPadj: 64.9
[2]; lung, MDA-MB-468 tumor-bearing mice
  AUC0−t: 2.679 µM·h
[2]; muscle AUC0−t / plasma AUC0−t, tumor-bearing mice
  KP (tissue-to-plasma partition coefficient): 1.25
[2]; muscle, tumor-bearing mice
  KPadj: 1.51
[2]; muscle, MDA-MB-468 tumor-bearing mice
  AUC0−t: 0.0946 µM·h
[2]; pancreas AUC0−t / plasma AUC0−t, tumor-bearing mice
  KP (tissue-to-plasma partition coefficient): 2.11
[2]; pancreas, tumor-bearing mice
  KPadj: 2.93
[2]; pancreas, MDA-MB-468 tumor-bearing mice
  AUC0−t: 0.16 µM·h
[2]; plasma, MDA-MB-468 tumor-bearing mice, linear/log trapezoidal
  AUC0−t: 0.0754 µM·h
[2]; skin AUC0−t / plasma AUC0−t, tumor-bearing mice
  KP (tissue-to-plasma partition coefficient): 1.71
[2]; skin, tumor-bearing mice
  KPadj: 2.87
[2]; skin, MDA-MB-468 tumor-bearing mice
  AUC0−t: 0.13 µM·h
[2]; spleen AUC0−t / plasma AUC0−t, tumor-bearing mice
  KP (tissue-to-plasma partition coefficient): 27.1
[2]; spleen, tumor-bearing mice
  KPadj: 47.2
[2]; spleen, MDA-MB-468 tumor-bearing mice
  AUC0−t: 2.056 µM·h
[2]; tumor-bearing mice
  KP in the liver after accounting for CLint, without adjustments for the fractional cellular volume: 25.3
  exposure relative to plasma exposure, fat, pancreas, skin, bone, and muscle: about 2 fold
[2]; tumor-bearing mice, LLOQ 0.2 ng/g
  time up to which MMAE concentration in the liver was quantifiable: 6 h
[2]; tumor-bearing mice, LLOQ 0.2 ng/mL, LC-MS/MS
  Plasma concentration after 12 h: below the limit of quantification
CYP3A
  substrate of CYP3A: substrate
